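Dose response: 5 concentrations. Exposure: 48 h. Format: 96-well plates. Endpoint: linear interpolation; highest concentration if not reached. Abbreviation: GI50, concentration required for 50% inhibition of growth.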 Activity calls are given as the source filed them. No stated cut-off is given here; in the data, active = GI50 up to about 1.1 µM and inactive = higher.
Experiments:
Test in all cases: NCI-60 cell line screen, 48 h
786-0 = test system: 786-0
A498 = test system: A498
ACHN = test system: ACHN
CAKI-1 = test system: CAKI-1
CCRF-CEM = test system: CCRF-CEM
HCC 2998 = test system: HCC 2998
HCT-116 = test system: HCT-116
HOP-92 = test system: HOP-92
HT-29 = test system: HT-29
IGROV-1 = test system: IGROV-1
KM12 = test system: KM12
M14 = test system: M14
NCI-H23 = test system: NCI-H23
OVCAR-8 = test system: OVCAR-8
RPMI-8226 = test system: RPMI-8226
RXF 393 = test system: RXF 393
SF-268 = test system: SF-268
SK-MEL-2 = test system: SK-MEL-2
SNB-19 = test system: SNB-19
TK-10 = test system: TK-10

**Q.** What does the source list for `O=C1/C(=C/c2cccc(O)c2)COc2ccccc21`?
**A.** GI50 (786-0): 4.69 µM (inactive); GI50 (A498): 20.3 µM (inactive); GI50 (ACHN): 1.78 µM (inactive); GI50 (CAKI-1): 3.44 µM (inactive); GI50 (CCRF-CEM): 1.59 µM (inactive); GI50 (HCC 2998): 0.029 µM (active); GI50 (HCT-116): 1.75 µM (inactive); GI50 (HOP-92): 16.9 µM (inactive); GI50 (HT-29): 3.27 µM (inactive); GI50 (IGROV-1): 7.96 µM (inactive); GI50 (KM12): 2.15 µM (inactive); GI50 (M14): 4.27 µM (inactive); GI50 (NCI-H23): 5.74 µM (inactive); GI50 (OVCAR-8): 7.38 µM (inactive); GI50 (RPMI-8226): 1.15 µM (inactive); GI50 (RXF 393): 10.1 µM (inactive); GI50 (SF-268): 18.4 µM (inactive); GI50 (SK-MEL-2): 18 µM (inactive); GI50 (SNB-19): 7.11 µM (inactive); GI50 (TK-10): 15.4 µM (inactive)

**Q.** What does the source list for `CC1=CC(=O)/C(=C/NC(=S)Nc2ccccc2)C(=O)O1`?
**A.** GI50 (786-0): > 100 µM (inactive); GI50 (A498): > 100 µM (inactive); GI50 (ACHN): > 100 µM (inactive); GI50 (CAKI-1): > 100 µM (inactive); GI50 (CCRF-CEM): > 100 µM (inactive); GI50 (HCC 2998): > 100 µM (inactive); GI50 (HCT-116): > 100 µM (inactive); GI50 (HOP-92): > 100 µM (inactive); GI50 (HT-29): > 100 µM (inactive); GI50 (IGROV-1): > 100 µM (inactive); GI50 (KM12): > 100 µM (inactive); GI50 (M14): > 100 µM (inactive); GI50 (NCI-H23): > 100 µM (inactive); GI50 (OVCAR-8): > 100 µM (inactive); GI50 (RPMI-8226): > 100 µM (inactive); GI50 (RXF 393): 40.7 µM (inactive); GI50 (SF-268): > 100 µM (inactive); GI50 (SK-MEL-2): > 100 µM (inactive); GI50 (SNB-19): > 100 µM (inactive); GI50 (TK-10): > 100 µM (inactive)

**Q.** With `CCOC(=O)C1=CC(C)(C(=O)OCC)Nc2c(nc(N)[nH]c2=O)N1` (stereo not given) as the compound, how does the GI50 (786-0) read?
**A.** Its GI50 is > 10 µM (inactive).

**Q.** What about the GI50 (A498) of the same compound?
**A.** Its GI50 is > 10 µM (inactive).

**Q.** And the GI50 (ACHN)?
**A.** Its GI50 is > 10 µM (inactive).

**Q.** And the GI50 (CAKI-1)?
**A.** The GI50 was > 10 µM (inactive).

**Q.** And the GI50 (CCRF-CEM)?
**A.** The GI50 was > 10 µM (inactive).

**Q.** What about the GI50 (HCC 2998) of the same compound?
**A.** Its GI50 is > 10 µM (inactive).

**Q.** And the GI50 (HCT-116)?
**A.** The GI50 was > 10 µM (inactive).

**Q.** And the GI50 (HOP-92)?
**A.** Its GI50 is > 10 µM (inactive).

**Q.** And the GI50 (HT-29)?
**A.** Its GI50 is > 10 µM (inactive).

**Q.** And the GI50 (IGROV-1)?
**A.** Its GI50 is > 10 µM (inactive).

**Q.** What about the GI50 (KM12) of the same compound?
**A.** Its GI50 is > 10 µM (inactive).

**Q.** And the GI50 (M14)?
**A.** The GI50 was > 10 µM (inactive).

**Q.** What about the GI50 (NCI-H23) of the same compound?
**A.** The GI50 was > 10 µM (inactive).

**Q.** What about the GI50 (OVCAR-8) of the same compound?
**A.** Its GI50 is > 10 µM (inactive).

**Q.** What about the GI50 (RPMI-8226) of the same compound?
**A.** The GI50 was > 10 µM (inactive).

**Q.** What about the GI50 (RXF 393) of the same compound?
**A.** The GI50 was > 10 µM (inactive).

**Q.** What about the GI50 (SF-268) of the same compound?
**A.** Its GI50 is > 10 µM (inactive).

**Q.** What about the GI50 (SK-MEL-2) of the same compound?
**A.** The GI50 was > 10 µM (inactive).

**Q.** And the GI50 (SNB-19)?
**A.** The GI50 was > 10 µM (inactive).

**Q.** And the GI50 (TK-10)?
**A.** Its GI50 is > 10 µM (inactive).

Source: ChEMBL document CHEMBL1201862, “PubChem BioAssay data set” (2004)
